Counter-ions that a name gives are not always drawn.
Columns and labels:
Rauscher leukemia virus = test: Antibody response to sheep red blood cells in Rauscher leukemia virus-infected (leukemic) mice, hemagglutinin test; format: in vivo, BALB/C mice; conditions: for Hemagglutinin Titer* Test 6: infected control 32, non-infected control 2048; for Hemagglutinin Titer* Test 5: infected control 128, non-infected control 4096; for Hemagglutinin Titer* Test 1: reciprocal of serum dilution producing at least 50% agglutination, infected control 8, non-infected control 1024
[1] = tested on: transplantable C3H mammary tumor; test: Transplanted C3H mammary tumor growth in mice; conditions: for Ave. tumor diameter (mm.^2) (weeks after tumor implantation 3): week 3, untreated control 22; for Ave. tumor diameter (mm.^2) (weeks after tumor implantation 4): week 4, untreated control 73; for Ave. tumor diameter (mm.^2) (weeks after tumor implantation 5): week 5, untreated control 149; for Ave. tumor diameter (mm.^2) (weeks after tumor implantation 6): week 6, untreated control 218; for Ave. tumor diameter (mm.^2) (weeks after tumor implantation 7): week 7, untreated control 316
Experimental: C3H/HEB/J male mice were inoculated subcutaneously with five 2 mm. fragments of a transplantable C3H mammary tumor on day zero. Drugs were administered once every 7 days for 5 weeks, starting 14 days after tumor inoculation. When test drug (or the control, Corynebacterium parvum) was administered in combination with Cytoxan, it was given 4 days after the Cytoxan. […] Tumor diameters were measured by means of a Vernier caliper. Test substances were considered active if tumor growth, as indicated by tumor diameter, was inhibited by 50% or more.

[2] = 100 mg/kg orally days 6, 7, 8, reciprocal serum dilution, infected control 32, non-infected control 512
[3] = 100 mg./kg. orally + Cytoxan 60 mg./kg.
[4] = 200 mg./kg. orally + Cytoxan 60 mg./kg.
[5] = 300 mg./kg. orally + Cytoxan 60 mg./kg.
[6] = Cytoxan 60 mg./kg. intraperitoneally alone

CCN(CC)CCOc1ccc2cc3ccc(OCCN(CC)CC)cc3nc2c1.Cl.Cl.Cl [3,6-Bis-(2-diethylaminoethoxy)acridine trihydrochloride]
Hemagglutinin Titer* Test 6 (Rauscher leukemia virus; 37.5 mg/kg orally days 6, 7, 8, reciprocal serum dilution): 64
Hemagglutinin Titer* Test 4 (Rauscher leukemia virus; 50 mg/kg orally days 6, 7, 8, reciprocal serum dilution, infected control 32, non-infected control 512): 128
Hemagglutinin Titer* Test 5 (Rauscher leukemia virus; 50 mg/kg orally days 6, 7, 8, reciprocal serum dilution): 128
Hemagglutinin Titer* Test 6 (Rauscher leukemia virus; 75 mg/kg orally days 6, 7, 8, reciprocal serum dilution): 128
Hemagglutinin Titer* Test 3 (Rauscher leukemia virus; [2]): 128
Hemagglutinin Titer* Test 4 (Rauscher leukemia virus; [2]): 256
Hemagglutinin Titer* Test 5 (Rauscher leukemia virus; 100 mg/kg orally days 6, 7, 8, reciprocal serum dilution): 512
Hemagglutinin Titer* Test 6 (Rauscher leukemia virus; 150 mg/kg orally days 6, 7, 8, reciprocal serum dilution): 128
Hemagglutinin Titer* Test 5 (Rauscher leukemia virus; 200 mg/kg orally days 6, 7, 8, reciprocal serum dilution): 512
Hemagglutinin Titer* Test 6 (Rauscher leukemia virus; 300 mg/kg orally days 6, 7, 8, reciprocal serum dilution): 128
Hemagglutinin Titer* Test 6 (Rauscher leukemia virus; 600 mg/kg orally days 6, 7, 8, reciprocal serum dilution): 256
Ave. tumor diameter (mm.^2) (weeks after tumor implantation 3) ([1]; 100 mg./kg. orally + Cytoxan 60 mg./kg. i.p. (given 4 days after Cytoxan)): 34 mm.^2
Ave. tumor diameter (mm.^2) (weeks after tumor implantation 4) [1, 3]: 53 mm.^2
Ave. tumor diameter (mm.^2) (weeks after tumor implantation 5) [1, 3]: 112 mm.^2
Ave. tumor diameter (mm.^2) (weeks after tumor implantation 6) [1, 3]: 149 mm.^2
Ave. tumor diameter (mm.^2) (weeks after tumor implantation 7) [1, 3]: 107 mm.^2
Ave. tumor diameter (mm.^2) (weeks after tumor implantation 3) ([1]; 200 mg./kg. orally + Cytoxan 60 mg./kg. i.p. (given 4 days after Cytoxan)): 32 mm.^2
Ave. tumor diameter (mm.^2) (weeks after tumor implantation 4) [1, 4]: 66 mm.^2
Ave. tumor diameter (mm.^2) (weeks after tumor implantation 5) [1, 4]: 82 mm.^2
Ave. tumor diameter (mm.^2) (weeks after tumor implantation 6) [1, 4]: 115 mm.^2
Ave. tumor diameter (mm.^2) (weeks after tumor implantation 7) [1, 4]: 135 mm.^2
Ave. tumor diameter (mm.^2) (weeks after tumor implantation 3) ([1]; 200 mg./kg. orally alone, once every 7 days): 22 mm.^2
Ave. tumor diameter (mm.^2) (weeks after tumor implantation 4) ([1]; 200 mg./kg. orally alone): 44 mm.^2
Ave. tumor diameter (mm.^2) (weeks after tumor implantation 5) ([1]; 200 mg./kg. orally alone): 109 mm.^2
Ave. tumor diameter (mm.^2) (weeks after tumor implantation 6) ([1]; 200 mg./kg. orally alone): 148 mm.^2
Ave. tumor diameter (mm.^2) (weeks after tumor implantation 7) ([1]; 200 mg./kg. orally alone): 223 mm.^2
Ave. tumor diameter (mm.^2) (weeks after tumor implantation 3) ([1]; 300 mg./kg. orally + Cytoxan 60 mg./kg. i.p. (given 4 days after Cytoxan)): 37 mm.^2
Ave. tumor diameter (mm.^2) (weeks after tumor implantation 4) [1, 5]: 71 mm.^2
Ave. tumor diameter (mm.^2) (weeks after tumor implantation 5) [1, 5]: 99 mm.^2
Ave. tumor diameter (mm.^2) (weeks after tumor implantation 6) [1, 5]: 128 mm.^2
Ave. tumor diameter (mm.^2) (weeks after tumor implantation 7) [1, 5]: 160 mm.^2
Ave. tumor diameter (mm.^2) (weeks after tumor implantation 3) ([1]; 300 mg./kg. orally alone, once every 7 days): 61 mm.^2
Ave. tumor diameter (mm.^2) (weeks after tumor implantation 4) ([1]; 300 mg./kg. orally alone): 98 mm.^2
Ave. tumor diameter (mm.^2) (weeks after tumor implantation 5) ([1]; 300 mg./kg. orally alone): 220 mm.^2
Ave. tumor diameter (mm.^2) (weeks after tumor implantation 6) ([1]; 300 mg./kg. orally alone): 375 mm.^2
inhibitory effect on mammary tumor growth compared to the untreated control ([1]; administered alone at 300, 200 and 100 mg./kg. every week for 5 weeks): only the 200 mg./kg. dose level produced an inhibitory effect
tumor growth being inhibited ([1]; combined with Cytoxan 60 mg./kg., all dose levels (300, 200, 100 mg./kg.)): 50 - 65%
tumor diameter of treated mice averaging ([1]; combined with Cytoxan 60 mg./kg., all dose levels, 316 mm.^2 for the untreated controls): 107 - 160 mm.^2

CN(C)CCOc1ccc2cc3ccc(OCCN(C)C)cc3nc2c1 [3,6-Bis-(2-dimethylaminoethoxy)acridine]
Hemagglutinin Titer* Test 1 (Rauscher leukemia virus; 100 mg/kg orally days 6, 7, 8): 128
Hemagglutinin Titer* Test 2 (Rauscher leukemia virus; [2]): 128

CN(C)C(C)(C)COc1ccc2cc3ccc(OCC(C)(C)N(C)C)cc3nc2c1 [3,6-Bis-(2-dimethylamino-2-methylpro-poxy)acridine trihydrochloride]
Hemagglutinin Titer* Test 1 (Rauscher leukemia virus; 100 mg/kg orally days 6, 7, 8): 64

O=P1(N(CCCl)CCCl)NCCCO1 (stereo not drawn) [Cytoxan, reference compound]
effect of Cytoxan dose on mammary tumor growth ([1]; 60 mg./kg. alone): ineffective dose
Ave. tumor diameter (mm.^2) (weeks after tumor implantation 3) ([1]; Cytoxan 60 mg./kg. intraperitoneally alone, once every 7 days): 47 mm.^2
No. Survivors No. Treated ([1]; Cytoxan 60 mg./kg. intraperitoneally alone, untreated control 7/8): 6/8
Ave. tumor diameter (mm.^2) (weeks after tumor implantation 4) [1, 6]: 101 mm.^2
Ave. tumor diameter (mm.^2) (weeks after tumor implantation 5) [1, 6]: 187 mm.^2
Ave. tumor diameter (mm.^2) (weeks after tumor implantation 6) [1, 6]: 277 mm.^2
Ave. tumor diameter (mm.^2) (weeks after tumor implantation 7) [1, 6]: 363 mm.^2

CN(C)CCCOc1ccc2cc3ccc(OCCCN(C)C)cc3nc2c1 [3,6-Bis-(3-dimethylaminopropoxy)acridine]
Hemagglutinin Titer* Test 1 (Rauscher leukemia virus; 100 mg/kg orally days 6, 7, 8): 128
Hemagglutinin Titer* Test 2 (Rauscher leukemia virus; [2]): 128

CCCCN(CCCC)CCOc1ccc2cc3ccc(OCCN(CCCC)CCCC)cc3nc2c1 [3,6-Bis-(2-di-n-butylaminoethoxy)acri-dine trihydrochloride]
Hemagglutinin Titer* Test 1 (Rauscher leukemia virus; 100 mg/kg orally days 6, 7, 8): 32

Reference: patent EP0012139A1, “Therapeutic agent for stimulating the immune response in a mammal” (AMERICAN CYANAMID COMPANY, priority 1978, dated 1980)
